# Test system: HCV subgenomic RNA replicon in Huh-7 human hepatoma cell line
# Assay: HCV RNA replication inhibitory activity in HCV replicon (subgenomic RNA replicon) cell line
# Type: cell-based, HCV-1b Hepatitis C virus
# Conditions: Huh-7 cells harboring HCV-1b subgenomic replicon, 72 hours, RT-PCR
# Procedure: To screen a compound that is capable of inhibiting HCV replication, each compound was added to Huh-7 human hepatoma cell line harboring HCV RNA replicon, followed by culture. Then, expression level of HCV RNA was quantified and its inhibitory activity was measured. HCV replicon used in this invention was derived from HCV-1b Hepatitis C virus gene that was bicistronic replicon composed of HCV IRES, neomycin resistant gene, EMCV (encephalomyocarditis virus) IRES. HCV non-structural proteins were composed of the sequences comprising NS3-NS5B and HCV 3′end. An expression vector harboring HCV replicon proceeded to in vitro transcription, and the obtained HCV replicon was transfected into the Huh-7 cells by electroporation. To select only those cells having HCV replicon, Huh-7 cells were cultured with medium containing the antibiotic G418 (500 μg/ml). The selected cells were cultured with DMEM (Dulbecco's modified Eagles media) containing 10% FBS, non-essential amino acids and 500 μg/ml of G418.
# Huh-7 cells harboring HCV subgenomic RNA replicon were cultured overnight in 6 well plate (3×10^5 cells/well), at 37° C. and 5% CO2 with DMEM containing 10% FBS, non-essential amino acids and 500 μg/ml of G418. Medium of each well was replaced with DMEM containing 2% FBS, non-essential amino acids and 500 μg/ml of G418. Test compound was dissolved in DMSO, which was added to each well at different concentrations, followed by culture in a 5% CO2 incubator at 37° C. for 72 hours. Equal amount of DMSO (negative control) and Interferon-α (positive control) were added as controls. Upon completion of the culture, medium of each well was eliminated, followed by washing with 1 ml of PBS. 250 μl/well of trypsin/EDTA was added thereto and cells were separated from the plate and washed with PBS again to eliminate medium. Total RNA was isolated from the cells by using SV total RNA isolation system (Promega corporation), followed by quantification using GeneQuant pro (Amersham bioscience). EC50 against HCV replicon of each compound was investigated by RT-PCR and the result was compared with those of controls. RT-PCR was performed with the primer targeting HCV 1b NS5B region and by AccessQuick™ RT-PCR system (Promega corporation). To obtain more accurate EC50 values, quantitative real-time PCR was performed along with RT-PCR. cDNA was obtained from the isolated RNA by using Reverse transcription system (Promega corporation), followed by quantitative real-time PCR using iQ SYBR Green Supermix (Bio-rad). At the same time, one-step real time RT-PCR was performed using Taqman probe to investigate the inhibitory activity of each compound. At this time, the primer targeting HCV 5′-UTR was used and GAPDH (Glyceraldehyde-3-phosphate dehydrogenase) gene was used as a reference gene for correction. Real time RT-PCR was performed by using iCycler iQ5 system (Bio-rad). The EC50 value was calculated by iCycler iQ5 optical system software (Bio-rad) program to determine the inhibitory activity. HCV replicon inhibitory activity of saponin components of Platycodon grandiflorum, the roots extract of Platycodon grandiflorum and the composition containing the same of the present invention and sapogenin and prosapogenin is shown in Table 7 and Table 8.
row,Compound,Inhibitory Activity EC50 (HCV RNA replication inhibitory activity of saponin components)
1,2″-O-acetyl-deapiopolygalacin D2 [Compound 11],>10 µg/mL
2,2″-O-acetyl-polygalacin D2 [Compound 12],1 µg/mL
3,"C[C@@H]1O[C@@H](O[C@H]2[C@H](OC(=O)[C@]34CCC(C)(C)C[C@H]3C3=CC[C@@H]5[C@@]6(C)C[C@H](O)[C@H](O[C@@H]7O[C@H](CO[C@@H]8O[C@H](CO[C@@H]9O[C@H](CO)[C@@H](O)[C@H](O)[C@H]9O)[C@@H](O)[C@H](O)[C@H]8O)[C@@H](O)[C@H](O)[C@H]7O)C(CO)(CO)[C@@H]6CC[C@@]5(C)[C@]3(C)C[C@H]4O)OC[C@H](O)[C@@H]2O)[C@H](O)[C@H](O)[C@H]1O[C@@H]1OC[C@@H](O)[C@H](O)[C@H]1O [Compound 1, deapioplatycoside E]",>10 µg/mL
4,"C[C@@H]1O[C@@H](O[C@H]2[C@H](OC(=O)[C@]34CCC(C)(C)C[C@H]3C3=CC[C@@H]5[C@@]6(C)C[C@H](O)[C@H](O[C@@H]7O[C@H](CO[C@@H]8O[C@H](CO[C@@H]9O[C@H](CO)[C@@H](O)[C@H](O)[C@H]9O)[C@@H](O)[C@H](O)[C@H]8O)[C@@H](O)[C@H](O)[C@H]7O)C(CO)(CO)[C@@H]6CC[C@@]5(C)[C@]3(C)C[C@H]4O)OC[C@H](O)[C@@H]2O)[C@H](O)[C@H](O)[C@H]1O[C@@H]1OC[C@@H](O)[C@H](O[C@@H]2OC[C@](O)(CO)[C@H]2O)[C@H]1O [Compound 2, platycoside E]",0.7 µg/mL
5,"CC1OC(OC2C(OC(=O)C34CCC(C)(C)CC3C3=CCC5C6(C)CC(O)C(OC7OC(COC8OC(CO)C(O)C(O)C8O)C(O)C(O)C7O)C(CO)(CO)C6CCC5(C)C3(C)CC4O)OCC(O)C2O)C(O)C(O)C1OC1OCC(O)C(OC2OCC(O)(CO)C2O)C1O (stereo not shown) [Compound 3, platycodin D3]",0.2 µg/mL
6,"C[C@@H]1O[C@@H](O[C@H]2[C@H](OC(=O)[C@]34CCC(C)(C)C[C@H]3C3=CC[C@@H]5[C@@]6(C)C[C@H](O)[C@H](O[C@@H]7O[C@H](CO)[C@@H](O)[C@H](O[C@@H]8O[C@H](CO)[C@@H](O)[C@H](O)[C@H]8O)[C@H]7O)[C@@](C)(CO)[C@@H]6CC[C@@]5(C)[C@]3(C)C[C@H]4O)OC[C@H](O)[C@@H]2O)[C@H](O)[C@H](O)[C@H]1O[C@@H]1OC[C@@H](O)[C@H](O[C@@H]2OC[C@](O)(CO)[C@H]2O)[C@H]1O [Compound 4, polygalacin D2]",>10 µg/mL
7,"C[C@@H]1O[C@@H](O[C@H]2[C@H](OC(=O)[C@]34CCC(C)(C)C[C@H]3C3=CC[C@@H]5[C@@]6(C)C[C@H](O)[C@H](O[C@@H]7O[C@H](CO)[C@@H](O)[C@H](O)[C@H]7O)[C@@](C)(CO)[C@@H]6CC[C@@]5(C)[C@]3(C)C[C@H]4O)OC[C@H](O)[C@@H]2O)[C@H](O)[C@H](O)[C@H]1O[C@@H]1OC[C@@H](O)[C@H](O[C@@H]2OC[C@](O)(CO)[C@H]2O)[C@H]1O [Compound 5, polygalacin D]",0.8 µg/mL
8,"C[C@@H]1O[C@@H](O[C@H]2[C@H](OC(=O)[C@]34CCC(C)(C)C[C@H]3C3=CC[C@@H]5[C@@]6(C)C[C@H](O)[C@H](O[C@@H]7O[C@H](CO)[C@@H](O)[C@H](O)[C@H]7O)[C@](CO)(C(=O)O)[C@@H]6CC[C@@]5(C)[C@]3(C)C[C@H]4O)OC[C@H](O)[C@@H]2O)[C@H](O)[C@H](O)[C@H]1O[C@@H]1OC[C@@H](O)[C@H](O[C@@H]2OC[C@](O)(CO)[C@H]2O)[C@H]1O [Compound 6, platyconic acid A]",0.2 µg/mL
9,"C[C@@H]1O[C@@H](O[C@H]2[C@H](OC(=O)[C@]34CCC(C)(C)C[C@H]3C3=CC[C@@H]5[C@@]6(C)C[C@H](O)[C@H](O[C@@H]7O[C@H](CO)[C@@H](O)[C@H](O[C@@H]8O[C@H](CO)[C@@H](O)[C@H](O)[C@H]8O)[C@H]7O)C(CO)(CO)[C@@H]6CC[C@@]5(C)[C@]3(C)C[C@H]4O)OC[C@H](O)[C@@H]2O)[C@H](O)[C@H](O)[C@H]1O[C@@H]1OC[C@@H](O)[C@H](O)[C@H]1O [Compound 7, deapioplatycodin D2]",0.2 µg/mL
10,"C[C@@H]1O[C@@H](O[C@H]2[C@H](OC(=O)[C@]34CCC(C)(C)C[C@H]3C3=CC[C@@H]5[C@@]6(C)C[C@H](O)[C@H](O[C@@H]7O[C@H](CO)[C@@H](O)[C@H](O[C@@H]8O[C@H](CO)[C@@H](O)[C@H](O)[C@H]8O)[C@H]7O)C(CO)(CO)[C@@H]6CC[C@@]5(C)[C@]3(C)C[C@H]4O)OC[C@H](O)[C@@H]2O)[C@H](O)[C@H](O)[C@H]1O[C@@H]1OC[C@@H](O)[C@H](O[C@@H]2OC[C@](O)(CO)[C@H]2O)[C@H]1O [Compound 8, platycodin D2]",0.1 µg/mL
11,"C[C@@H]1O[C@@H](O[C@H]2[C@H](OC(=O)[C@]34CCC(C)(C)C[C@H]3C3=CC[C@@H]5[C@@]6(C)C[C@H](O)[C@H](O[C@@H]7O[C@H](CO)[C@@H](O)[C@H](O)[C@H]7O)C(CO)(CO)[C@@H]6CC[C@@]5(C)[C@]3(C)C[C@H]4O)OC[C@H](O)[C@@H]2O)[C@H](O)[C@H](O)[C@H]1O[C@@H]1OC[C@@H](O)[C@H](O)[C@H]1O [Compound 9, deapioplatycodin D]",0.2 µg/mL
12,"C[C@@H]1O[C@@H](O[C@H]2[C@H](OC(=O)[C@]34CCC(C)(C)C[C@H]3C3=CC[C@@H]5[C@@]6(C)C[C@H](O)[C@H](O[C@@H]7O[C@H](CO)[C@@H](O)[C@H](O)[C@H]7O)C(CO)(CO)[C@@H]6CC[C@@]5(C)[C@]3(C)C[C@H]4O)OC[C@H](O)[C@@H]2O)[C@H](O)[C@H](O)[C@H]1O[C@@H]1OC[C@@H](O)[C@H](O[C@@H]2OC[C@](O)(CO)[C@H]2O)[C@H]1O [Compound 10, platycodin D]",0.1 µg/mL
13,"CC1(C)CC[C@]2(C(=O)O)[C@H](O)C[C@]3(C)C(=CC[C@@H]4[C@@]5(C)C[C@H](O)[C@H](O)C(CO)(CO)[C@@H]5CC[C@]43C)[C@@H]2C1 [Compound 14, platycodigenin]",>10 µg/mL
14,"CC1(C)CCC2(C(=O)O)C(O)CC3(C)C(=CCC4C5(C)CC(O)C(O)C(C)(CO)C5CCC43C)C2C1 (stereo not shown) [Compound 15, polygalacic acid]",2 µg/mL
15,"COC(=O)C12CCC(C)(C)CC1C1=CCC3C4(C)CC(O)C(OC5OC(CO)C(O)C(O)C5O)C(CO)(CO)C4CCC3(C)C1(C)CC2O (stereo not shown) [Compound 18, platycodigenin 3-O-glucopyranoside 28-methyl ester]",>10 µg/mL
16,"COC(=O)C12CCC(C)(C)CC1C1=CCC3C4(C)CC(O)C(OC5OC(CO)C(O)C(OC6OC(CO)C(O)C(O)C6O)C5O)C(CO)(CO)C4CCC3(C)C1(C)CC2O (stereo not shown) [Compound 19, platycodigenin 3-O-laminaribioside 28-methyl ester]",>10 µg/mL
17,platycogenic acid A lactone 3-O-glucopyranoside [Compound 17],2 µg/mL
18,platycogenic acid A lactone [Compound 16],0.4 µg/mL
19,platyconic acid A methyl ester [Compound 13],5 µg/mL
